Data on one compound can be found in paper PMC11725581, “Developing novel Lin28 inhibitors by computer aided drug design” (Cell Death Discovery, 2025).

Experiment [1] deals with DuNE cells. The experiment can be described thus: Colony formation assay, DuNE cells. Type of experiment: cell-based. To be noted: 14 days, vs vehicle (~50 colonies). An excerpt:
CSCs have characteristic tumorigenic, self-renewal, and differentiation properties. The self-renewal ability is hijacked by CSCs that makes them both tumorigenic and capable of sustaining long-term tumor growth, which can be evaluated by 3D spheroid and colony formation assays. We established a DuNE spheroid model in which DuNE cells formed 3D spheroids in 96-well plates (Figure S3). By integrating this 3D culture with the Incucyte live-cell imaging system, we quantified the sizes of the spheroid growth over 0–6 days to generate a spheroid growth curve. Using this model system, we treated the DuNE spheroids with increasing doses (0–100 μM) of C1632, Ln15, and Ln268 for 0–6 days. […] In addition, classic colony formation assays were used to measure the stemness in the DuNE model. Colony formation counts, which were ~50 under vehicle treatment after 14 days, decreased by 22% in C1632-treated plates, and by 75% and 96% in the Ln15 and Ln268 treated plates, respectively (Fig. 4D).
In the colony formation assays, cancer cells were seeded in 0.7% soft agar in a 6-well plate, with a 1% soft agar bottom base coating. Cells were allowed to grow for 14 days to form colonies. Colonies were stained with crystal violet and imaged by stitching 5X field images together to capture the entire well (Zeiss light microscope [Carl Zeiss]). Colony numbers were counted according to their diameters (100-300um or >300um). Three independent biological replicates were performed for all the assays.

Another experiment has as its system ES-2 cells. The experiment can be described thus: Cell proliferation (Incucyte), ES-2. To be noted: Lin28a/Lin28b-negative. It counts as cell-based. The source says: To further evaluate whether the suppressive effects of Ln268 are specific to Lin28-positive cancer cells, we compared cell growth rates of DuNE (Lin28b-positive line) and Du145 (Lin28b-negative line), both of which are Lin28a-negative. DuNE has the same genomic background with Du145 except for the transduction of the SRRM4 gene. […] Furthermore, Ln268 had no impact on the cell growth of DuNE(KO) cells, in which the Lin28b gene was knocked out by CRISPR (Fig. 5C). […] We also tested several ovarian and endometrial cancer cell lines with different Lin28a and Lin28b expression profiles (Fig. 5E).

In experiment [2] the test system is Lin28b, let-7 target, CSC and NE biomarker genes in DuNE cells. Put plainly: Gene expression (real-time qPCR, immunoblotting) in DuNE cells. Type of experiment: cell-based. Conditions: 72 h. The procedure: Fig. 4 Ln268 strongly blocks cancer cell stemness of t-NEPC cells. A, B DuNE cells were treated with C1632, Ln15, and Ln268 for 72 h. Selected Let-7 targeted genes, stem cell biomarkers and NE biomarkers were measured by real-time qPCR (A). Lin28b and its downstream HMGA2 protein levels were measured by immunoblotting (B). C DuNE spheroids were treated with 0–100 μM of C1632, Ln15, and Ln268 for 0–6 days. Spheroid sizes were measured and plotted. D DuNE cells were used to perform colony formation assays in the presence of C1632, Ln15 and Ln268 for 14 days. The number of colonies formed in each treatment counted and plotted. E DuNE cells under 3D culture conditions were treated with C1632, Ln15, and Ln268 at the indicated concentrations. Cell growth rates were measured by Incucyte. F DuNE cells were treated with 0–20 μM Ln268 for 144 h. FACS measured cell populations at each stage of cell cycling. Three independent biological replicates were performed for all the assays. All results are presented as the mean ± SD.
Total RNA was extracted by TRIZOL reagent (Invitrogen), treated with deoxyribonuclease and reversely transcribed by random hexamers and superscript II (Invitrogen). Real-time qPCR was performed on the ABI PRISM 7900 HT system (Applied Biosystems) using the FastStart Universal SYBR Green Master mix (Roche) following standard protocol as we reported. […]

The test system of experiment [3] is DuNE cells. The experiment can be described thus: Cell cycle analysis by FACS, DuNE cells. It counts as cell-based. To be noted: 0-20 μM, 144 h. An excerpt: To further compare the potency of Ln268 with C1632 and Ln15 in suppressing DuNE cell growth, we also measured cell growth rates under […] conditions (Fig. 4E). […] In addition, we used FACS assays to confirm that Ln268-mediated cell growth inhibition was due to its effects on blocking cancer cell cycling from the G1 phase towards the S and M phases (Fig. 4F). […] In summary, we confirmed that Ln268 is a potent Lin28 inhibitor that blocks the CSC phenotype of cancer cells, suppresses formation of 3D colonies, and inhibits cancer cell proliferation.

For another experiment, the target named is T1, Lin28b ZKD (Homo sapiens, UniProt Q6ZN17).
T1 sequence (Q6ZN17 127-166 limits assumed): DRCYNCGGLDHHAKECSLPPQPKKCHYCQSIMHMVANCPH
Put plainly: 1H-15N HSQC NMR of Lin28b-ZKD with ligand. Type of experiment: binding. Conditions: ligand added in 20:1 molar ratio. An excerpt:
Given that Ln268 is derived from the parent compound Ln15, we wanted to assess whether the improved properties of Ln268 were linked to a potential difference in its interaction with Lin28 ZKD. To this end, we collected ^1H-^15N HSQC spectra of Lin28b-ZKD, Lin28b-ZKD + Ln15, and Lin28b-ZKD + Ln268. RNA binding proteins (RBPs) commonly have binding pockets that are intrinsically disordered, as evidenced by the narrow chemical shift dispersion observed in the HQSC of Lin28b-ZKD alone (Fig. 3D). Addition of either Ln15 or Ln268 led to changes in the chemical shifts of ca. 20 residues, consistent with the change in conformation of the Lin28b-ZKD segment which encompasses residues 137–160 (three of which are prolines) upon RNA binding (Fig. 3E). Although many of the peak shifts are the same for the Ln15 and Ln268 containing samples, there are around 7 resonances where the peaks disappear in the case of Ln268.
NMR spectra were recorded at 5 °C on a Bruker Avance III 850 MHz spectrometer, equipped with a TCI cryoprobe. ^1H-^15N HSQC experiments were recorded on ^13C/^15N-labeled Lin28b ZKD (230 μM), in 20 mM d-Tris-HCl (pH 7.5), 100 mM NaCl, 1 mM d-DTT, 0.02% NaN3, 0.25 mM ZnCl2 + 1 mM IDA, and 10% D2O, to which unlabeled Ln15 and Ln268 was added, respectively. The time domain matrix was 4k by 512. Four scans were acquired per t1 increment. Spectra were processed and plotted using Topspin to a final size of 8k by 1k. For the overlays, the levels were set to the same base level in all cases, with a multiplication factor of 1.1.

Each structure is given as a SMILES string.

As to `O=c1[nH]c(Nc2ccc(F)cc2O)cs1` [Ln268], in the experiment with DuNE cells [1], the “decrease of colony formation counts” value came to 96%. Moreover, in the experiment with ES-2 cells, the “effect on growth of ES-2 cells” value is “no or minimal impacts”. For the same compound, in experiment [2], the “effect on Lin28b mRNA and protein levels” value is “potently inhibited Lin28b at both mRNA and protein levels”. In addition, the “inhibition of Oct4, Nanog and ID4 expression relative to C1632” value in experiment [2] (qPCR) is “stronger inhibitory effects than C1632”. For the same compound, the “cell cycle effect (FACS)” value in the experiment on DuNE cells [3] was “arrested in G2/M in a dose-dependent manner”. For the same compound, at Lin28b ZKD, the “residues of Lin28b-ZKD with changed chemical shifts (1H-15N HSQC)” value is “ca. 20 residues” and the “resonances of Lin28b-ZKD whose peaks disappear (1H-15N HSQC)” value is “around 7 resonances”.
